Assay results published in patent US9839215B2, “Methods for increasing oil palm yield” (Valent BioSciences Corporation, priority 2015, dated 2017).

Assays:
[1] = test system: oil palm; test: Field study of cumulative loose fruit (CLF) and cumulative loose mass (CLM) after one-time bunch-directed spray; format: in vivo, oil palm (Compact×Ghana plants); conditions: one spray 100 mL/bunch; for Cumulative Loose Mass / % Difference with UTC (Cumulative Loose Fruit) / % Difference with UTC (Cumulative Loose Mass): 14 days; for % Difference with UTC (Cumulative Loose Fruit) / % Difference with UTC (Cumulative Loose Mass): positive = reduction; for Cumulative Loose Fruit: counted for 14 days
Description: Plant Material: A field study was executed in a plantation in Costa Rica to compare the effects of one-time bunch-directed applications of: (1) water sprayed untreated control (UTC); (2) AVG-HCl at 500 ppm (59.5 g) active ingredient (a.i.); (3) AVG-HCl at 125 ppm (14.9 g) a.i.; (4) 200 ppm (0.2 g) a.i. of NAA; (5) AVG-HCl at 500 ppm (59.5 g) a.i. and 200 ppm (0.2 g) a.i. of NAA; and (6) AVG-HCl at 125 ppm (14.9 g) a.i. and 200 ppm (0.2 g) a.i. of NAA. In this study, AVG was provided in a formulation as AVG-HCl. NAA was provided as the sodium salt at concentrations of 20% and 3.5%. For each treatment, 24 palms per treatment were randomly selected covering about 15 hectares. The palms were Compact×Ghana plants and 2.5 to 3 years old. Treatment Application: A manual DEA-2000 sprayer was used to spray all treatments (100 mL/bunch) to bunches with 1 to 3 loose fruits. The time required to spray each bunch was about 11 to 20 seconds depending on the sprayer. Sprays were conducted only once per bunch. Twelve bunches were sprayed on Oct. 28, 2014 and the other 12 on Nov. 4, 2014. Cumulative loose fruit (CLF) and cumulative loose mass (CLM) counts were determined at daily basis with exception of Sundays for 14 days in order to objectively quantify fruit abscission. An electronic balance was used to weight out all fruit. All loose fruit on the bunch, branches and on the ground was counted and weighed.

[2] = test system: oil palms; test: Oil yield of oil palms after application before harvest of the fruit; format: in vivo, oil palm; conditions: applied before harvest of the fruit
[3] = test system: oil palm fruit; conditions: preharvest application to attached bunches of oil palm fruit; cited from earlier work

SMILES: NCCO/C=C/[C@H](N)C(=O)O (stereo in doubt) [AVG, [S]-trans-2-amino-4-(2-aminoethoxy)-3-butenoic acid]
- Cumulative Loose Mass ([1]; AVG-HCl 125 ppm (14.9 g) a.i.): 2028 g
- % Difference with UTC (Cumulative Loose Fruit) ([1]; AVG-HCl 125 ppm (14.9 g) a.i.): 3.9%
- % Difference with UTC (Cumulative Loose Mass) ([1]; AVG-HCl 125 ppm (14.9 g) a.i.): −5.4%
- Cumulative Loose Fruit ([1]; AVG-HCl 125 ppm (14.9 g) a.i.): 160.7
- Cumulative Loose Mass ([1]; AVG-HCl 500 ppm (59.5 g) a.i.): 1154 g
- % Difference with UTC (Cumulative Loose Fruit) ([1]; AVG-HCl 500 ppm (59.5 g) a.i.): 48.5%
- % Difference with UTC (Cumulative Loose Mass) ([1]; AVG-HCl 500 ppm (59.5 g) a.i.): 40%
- Cumulative Loose Fruit ([1]; AVG-HCl 500 ppm (59.5 g) a.i.): 86.1

SMILES: O=C(O)Cc1cccc2ccccc12 [NAA, 1-naphthaleneacetic acid]
- Cumulative Loose Mass ([1]; NAA 200 ppm (0.2 g) a.i.): 1501 g
- % Difference with UTC (Cumulative Loose Fruit) ([1]; NAA 200 ppm (0.2 g) a.i.): 31.3%
- % Difference with UTC (Cumulative Loose Mass) ([1]; NAA 200 ppm (0.2 g) a.i.): 22%
- Cumulative Loose Fruit ([1]; NAA 200 ppm (0.2 g) a.i.): 114.8
- oil yield of oil palms [2]: increases the oil yield

SMILES: O=P(O)(O)CCCl [ethephon, 2-chloroethyl phosphonic acid]
- increase of oil content [3]: 7%

SMILES: C=C1C[C@]23C[C@@]1(O)CC[C@H]2[C@@]12C=C[C@H](O)[C@@](C)(C(=O)O1)[C@H]2[C@@H]3C(=O)O [gibberellic acid]
- oil yield of oil palms [2]: inconsistent and unsatisfactory oil yields
